Among the data in patent publication US10035792B2, “Resorcinol derivative as HSP90 inhibitor” (priority 2015, dated 2018) are IC50 and EC50 values, retold here.

Like-named read-outs stand apart in the source and are kept apart here.

In one experiment the target is HSP90α (Homo sapiens (Human), UniProt P07900). Briefly: Fluorescence polarization (FP) HSP90-alpha target binding assay. The text has this:
In the present invention, the method of fluorescence polarization (FP) was used to establish the screening platform for HSP90-alpha inhibitors. The principle based on is to calculate fluorescence polarization values in horizontal and vertical directions by detecting molecular weight changes before and after interaction of fluorescent labeled small molecules with other molecules, in use for correlation analysis. If binding equilibria between the fluorescent labeled small molecule and the macromolecule is established, it moves slowly when excited, and the fluorescence polarization values measured will increase. If the fluorescent labeled small molecule binding to the macromolecule is replaced with other ligands, its rotational or inversional speed in free state will become faster, the emitted light would be depolarized with respect to the exciting light plane, and thus the polarized light value measured will decrease, so as to calculate the polarization value of the sample (the unit of polarization value is mP).
The fluorescent labeled small molecule used in the present invention was VER-00051001 (synthesized by reference to the synthetic method described in JMC, 2008, 51, 196-218). The reaction was carried out in a 384-well black plate, using the reaction hydrophobic protein HFB buffer: 100 mM Tris.Cl pH 7.4, 20 mM KCl, 6 mM MgCl2, 5 μg/mL BSA, 25 nM full-length Hsp90U, 10 nM VER-51001. The volume of the reaction system was […], containing 5 nM GM-BODIPY (geldanamycin), 30 nM HSP90 and the test small molecular compound or DMSO (dimethyl sulfoxide), wherein the DMSO content was 2% o. Additional two group wells were established, wherein the wells only added with HFB buffer were used as blank controls, and the wells further added with 5 nM GM-BODIPY were used as negative controls. The reaction was carried out at 4° C. for 12-16 hours. The mP value was measured by Biotek microplate reader at 485 nm of excitation wavelength and 535 nm of emission wavelength. The inhibition rate was calculated using the following equation: (Compound-free mP−Compound mP)/(Compound-free mP−negative control mP)×100%

Experiment [1] concerns human lung cancer cell line A549. Briefly: Tumor cell growth inhibition, SRB staining, A549. It is filed as cell-based. Conditions: A549, 72 h. As for the experimental part:
The growth inhibition assay of tumor cells was detected by sulforhodamine B (SRB) staining method. The specific steps were as follows: inoculating human colon cancer cell line HCT116 and human lung cancer cell line A549 (purchased from American Type Culture Collection, ATCC) at the logarithmic growth phase into a 96-well micro culture plate at an appropriate concentration of 4000 cells/well, 100 μL for each well; after culturing overnight, adding with the compound at different concentrations (100, 10, 1, 0.1, 0.01 μM) to react for 72 h, wherein triplicate wells were set up for each concentration, and solvent control wells with the corresponding concentration and zero wells without cells were also set up. After the completion of the reaction, the culture medium was removed from the adherent cells, the later was added with 10% (w/v) trichloroacetic acid (100 μL/well) at 4° C. to fix for 1 h, and then washed five times with distilled water. After drying at room temperature, 100 μL of SRB solution (4 mg/mL, dissolved in 1% glacial acetic acid) was added into each well, followed by incubation and staining for 15 min at room temperature. The uncombined SRB was removed by washing five times with 1% glacial acetic acid. After drying at room temperature, 100 μL of 10 mM Tris solution was added into each well, and the optical density (OD) at 515 nm was measured by a […] microplate reader. The inhibition rate of the drug to tumor cell growth was calculated according to the following equation: Inhibition rate (%)=(OD of control well-OD of drug well)/OD of control well×100%. The experiment was repeated twice.
Background: The SRB assay estimates cell density from bound dye.

The mark [2] stands for this setting: fluorescence polarization, read-out: Target binding ability HSP90α FP IC50.

Take `CCNC(=O)c1noc(-c2cc(C(C)C)c(O)cc2O)c1-c1ccc2c(c1)CCN(CCOC)C2` [Example 45, 5-(2,4-dihydroxyl-5-isopropylphenyl)-N-ethyl-4-(2-(2-methoxyethyl)-1,2,3,4-tetrahydroisoquinolin-6-yl)isoxazole-3-carboxamide]: the IC50 (as a rule, the concentration that gives 50% inhibition) at HSP90α (setting [2]) was less than 20 nM. For the same compound, the EC50 (in general, the concentration giving half of the maximal effect) in experiment [1] is 20 to 100 nM.

In the case of `CCNC(=O)c1noc(-c2cc(C(C)C)c(O)cc2O)c1-c1ccc2c(c1)CCN(CC)C2` [Example 49, 5-(2,4-dihydroxyl-5-isopropylphenyl)-N-ethyl-4-(2-ethyl-1,2,3,4-tetrahydroisoquinolin-6-yl)isoxazole-3-carboxamide], the IC50 at HSP90α (setting [2]) was less than 20 nM. In experiment [1], this compound registered an EC50 of 20 to 100 nM.

Take `CCNC(=O)c1noc(-c2cc(C)c(O)cc2O)c1-c1ccc2c(c1)CCN(C)C2` [Example 32, 5-(2,4-dihydroxyl-5-methylphenyl)-N-ethyl-4-(2-methyl-1,2,3,4-tetrahydroisoquinolin-6-yl)isoxazole-3-carboxamide]: the IC50 at HSP90α (setting [2]) was less than 20 nM. The compound also showed an EC50 in experiment [1] greater than 100 nM.

For `CC(C)c1cc(-c2noc(C(=O)NCCCO)c2-c2ccc3c(c2)CCN(C)C3)c(O)cc1O` [Example 66, 3-(2,4-dihydroxyl-5-isopropylphenyl)-N-(3-hydroxylpropyl)-4-(2-methyl-1,2,3,4-tetrahydroisoquinolin-6-yl)isoxazole-5-carboxamide], at HSP90α (setting [2]), the IC50 is less than 20 nM. Moreover, the EC50 in experiment [1] is less than 20 nM.

For the compound `CCNC(=O)c1noc(-c2cc(CC)c(O)cc2O)c1-c1ccc2c(c1)CCN(C)C2` [Example 34, 5-(5-ethyl-2,4-dihydroxyl-phenyl)-N-ethyl-4-(2-methyl-1,2,3,4-tetrahydroisoquinolin-6-yl)isoxazole-3-carboxamide], the IC50 at HSP90α (setting [2]) is less than 20 nM. In addition, in experiment [1], the EC50 is 20 to 100 nM.

Regarding `CCNC(=O)c1noc(-c2cc(C(C)C)c(O)cc2O)c1-c1ccc2c(c1)C1CCC2N1CC(C)C` (centres unmarked) [Example 8, 5-(2,4-dihydroxyl-5-isopropylphenyl)-N-ethyl-4-(9-isobutyl-1,2,3,4-tetrahydro-1,4-epiminonaphth-6-yl)isoxazole-3-carboxamide], the IC50 at HSP90α lay within 20 to 100 nM. Besides, the EC50 in experiment [1] is less than 20 nM.

Consider `CCCN1CCc2cc(-c3c(C(=O)NCC)noc3-c3cc(C(C)C)c(O)cc3O)ccc2C1` [Example 50, 5-(2,4-dihydroxyl-5-isopropylphenyl)-N-ethyl-4-(2-propyl-1,2,3,4-tetrahydroisoquinolin-6-yl)isoxazole-3-carboxamide], for which the IC50 at HSP90α (setting [2]) was 20 to 100 nM. Also, in experiment [1], the EC50 was less than 20 nM.

In the case of `CC(C)c1cc(-c2noc(C(=O)NCCF)c2-c2ccc3c(c2)CCN(C)C3)c(O)cc1O` [Example 65, 3-(2,4-dihydroxyl-5-isopropylphenyl)-N-(2-fluoroethyl)-4-(2-methyl-1,2,3,4-tetrahydroisoquinolin-6-yl)isoxazole-5-carboxamide], the IC50 at HSP90α (setting [2]) is less than 20 nM. In experiment [1], this compound yielded an EC50 of less than 20 nM.

On to `CCNC(=O)c1noc(-c2cc(C(C)C)c(O)cc2O)c1-c1cc2c(s1)CCN(C)C2` [Example 9, 5-(2,4-dihydroxyl-5-isopropylphenyl)-N-ethyl-4-(5-methyl-4,5,6,7-tetrahydrothieno[3,2-c]pyridin-2-yl)isoxazole-3-carboxamide], for which the IC50 on HSP90α (setting [2]) lay within 20 to 100 nM. In experiment [1], this compound displayed an EC50 of 20 to 100 nM.

For the compound `CCNC(=O)c1noc(-c2cc(C(C)C)c(O)cc2O)c1-c1cc2c(s1)C(C)(C)NCC2` [Example 18, 5-(2,4-dihydroxyl-5-isopropylphenyl)-4-(7,7-dimethyl-4,5,6,7-tetrahydrothieno[2,3-c]pyridin-2-yl)-N-ethyl-isoxazole-3-carboxamide], the IC50 at HSP90α (setting [2]) is less than 20 nM. The concentration giving a half-maximal response (EC50) in experiment [1] lay in the range of 20 to 100 nM.

Turning to `CCNC(=O)c1noc(-c2cc(C(C)C)c(O)cc2O)c1-c1cc2n(c1)CCN(C)C2` [Example 23, 5-(2,4-dihydroxyl-5-isopropylphenyl)-N-ethyl-4-(2-methyl-1,2,3,4-tetrahydropyrrolo[1,2-a]pyrazin-7-yl)isoxazole-3-carboxamide], at HSP90α (setting [2]), the IC50 was less than 20 nM. For the same compound, in experiment [1], the EC50 was 20 to 100 nM.

`CCNC(=O)c1noc(-c2cc(C(C)C)c(O)cc2O)c1-c1ccc2c(c1)CCN(CC(C)C)C2` [Example 52, 5-(2,4-dihydroxyl-5-isopropylphenyl)-N-ethyl-4-(2-isobutyl-1,2,3,4-tetrahydroisoquinolin-6-yl)isoxazole-3-carboxamide]: the 50% inhibitory concentration (IC50) at HSP90α (setting [2]) was in the range of 20 to 100 nM. In experiment [1], this compound showed an EC50 of 20 to 100 nM.

`CCNC(=O)c1noc(-c2cc(C(C)C)c(O)cc2O)c1-c1ccc2c(n1)CCN(C)C2` [Example 11, 5-(2,4-dihydroxyl-5-isopropylphenyl)-N-ethyl-4-(6-methyl-5,6,7,8-tetrahydro-1,6-naphthyridin-2-yl)isoxazole-3-carboxamide]: the IC50 at HSP90α (setting [2]) is 20 to 100 nM. In experiment [1], the EC50 is less than 20 nM.

Take `CC(C)c1cc(-c2noc(C(=O)NCCO)c2-c2ccc3c(c2)CCN(C)C3)c(O)cc1O` [Example 64, 3-(2,4-dihydroxyl-5-isopropylphenyl)-N-(2-hydroxylethyl)-4-(2-methyl-1,2,3,4-tetrahydroisoquinolin-6-yl)isoxazole-5-carboxamide]: on HSP90α (setting [2]), the half-maximal inhibitory concentration (IC50) was less than 20 nM. Moreover, the EC50 in experiment [1] was less than 20 nM.

With `CCNC(=O)c1onc(-c2cc(C(C)C)c(O)cc2O)c1-c1ccc2c(c1)CCN(CCF)C2` [Example 71], the 50% inhibitory concentration (IC50) on HSP90α (setting [2]) is less than 20 nM. The EC50 in experiment [1] is less than 20 nM.

On to `CCNC(=O)c1noc(-c2cc(C(C)C)c(O)cc2O)c1-c1ccc2c(c1)CCCN(C)C2` [Example 26, 5-(2,4-dihydroxyl-5-isopropylphenyl)-N-ethyl-4-(2-methyl-2,3,4,5-tetrahydro-1H-benzo[c]azepin-7-yl)isoxazole-3-carboxamide], for which the IC50 at HSP90α (setting [2]) is less than 20 nM. Moreover, the EC50 in experiment [1] was in the range of 20 to 100 nM.

Turning to `CC(C)c1cc(-c2onc(C(O)C(F)(F)F)c2-c2ccc3c(c2)CCN(C)C3)c(O)cc1O` (centres unmarked) [Example 20, 4-isopropyl-6-(4-(2-methyl-1,2,3,4-tetrahydroisoquinolin-6-yl)-3-(2,2,2-trifluoro-1-hydroxyethyl)isoxazol-5-yl)benzene-1,3-diol], on HSP90α (setting [2]), the IC50 was in the range of 20 to 100 nM. The EC50 in experiment [1] was greater than 100 nM.

`CCNC(=O)c1noc(-c2cc(C(C)C)c(O)cc2O)c1-c1ccc2c(c1)CCN(C(C)C)C2` [Example 51, 5-(2,4-dihydroxyl-5-isopropylphenyl)-N-ethyl-4-(2-isopropyl-1,2,3,4-tetrahydroisoquinolin-6-yl)isoxazole-3-carboxamide]: the IC50 at HSP90α (setting [2]) lay within 20 to 100 nM. Besides, the half-maximal effective concentration (EC50) in experiment [1] fell in the range of 20 to 100 nM.

Regarding `CCNC(=O)c1noc(-c2cc(C(C)C)c(O)cc2O)c1-c1ccc2c(c1)CCN(C)CC2` [Example 25, 5-(2,4-dihydroxyl-5-isopropylphenyl)-N-ethyl-4-(3-methyl-2,3,4,5-tetrahydro-1H-benzo[d]azepin-7-yl)isoxazole-3-carboxamide], the concentration for half-maximal inhibition (IC50) on HSP90α (setting [2]) is less than 20 nM. Moreover, the 50% effective concentration (EC50) in experiment [1] was 20 to 100 nM.

As to `CCNC(=O)c1noc(-c2cc(C(C)C)c(O)cc2O)c1-c1ccc2c(c1)CCN(C(=O)CCN1CCOCC1)C2` [Example 58, 5-(2,4-dihydroxyl-5-isopropylphenyl)-N-ethyl-4-(2-(3-morpholino-4-yl-propionyl)-1,2,3,4-tetrahydroisoquinolin-6-yl)isoxazole-3-carboxamide], the IC50 on HSP90α (setting [2]) is 20 to 100 nM. The same compound showed an EC50 in experiment [1] greater than 100 nM.

Turning to `CCNC(=O)c1noc(-c2cc(C3CC3)c(O)cc2O)c1-c1ccc2c(c1)CCN(C)C2` [Example 35, 5-(5-cyclopropyl-2,4-dihydroxyl-phenyl)-N-ethyl-4-(2-methyl-1,2,3,4-tetrahydroisoquinolin-6-yl)isoxazole-3-carboxamide], the IC50 at HSP90α (setting [2]) was less than 20 nM. In experiment [1], the EC50 lay in the range of 20 to 100 nM.

Regarding `CCNC(=O)c1noc(-c2cc(C(C)C)c(O)cc2O)c1-c1ccc2c(c1)CCN(CCC(=O)N(C)C)C2` [Example 56], the IC50 on HSP90α (setting [2]) was 20 to 100 nM. The EC50 in experiment [1] is greater than 100 nM.
